One assay has as its system α2-adrenergic receptors. Briefly: Clonidine-induced contraction of isolated rat thoracic aorta. In kind it is cell-based. Conditions: 10^−8, 10^−7, 10^−6 M. The text has this: (§1) Isolation of rat thoracic aorta. Rat thoracic aorta was removed, cleaned of adhering fat and connective tissue and cut into 3–4 mm wide transverse rings.
The next assay deals with T1, β1 receptors (Rattus norvegicus, UniProt P18090).
T1 construct: with [^3H]CGP-12177 on β1 receptors in rat ventricle; from tissue; host or cells: Wistar rat heart (ventricle) membranes
T1 sequence (P18090 whole entry): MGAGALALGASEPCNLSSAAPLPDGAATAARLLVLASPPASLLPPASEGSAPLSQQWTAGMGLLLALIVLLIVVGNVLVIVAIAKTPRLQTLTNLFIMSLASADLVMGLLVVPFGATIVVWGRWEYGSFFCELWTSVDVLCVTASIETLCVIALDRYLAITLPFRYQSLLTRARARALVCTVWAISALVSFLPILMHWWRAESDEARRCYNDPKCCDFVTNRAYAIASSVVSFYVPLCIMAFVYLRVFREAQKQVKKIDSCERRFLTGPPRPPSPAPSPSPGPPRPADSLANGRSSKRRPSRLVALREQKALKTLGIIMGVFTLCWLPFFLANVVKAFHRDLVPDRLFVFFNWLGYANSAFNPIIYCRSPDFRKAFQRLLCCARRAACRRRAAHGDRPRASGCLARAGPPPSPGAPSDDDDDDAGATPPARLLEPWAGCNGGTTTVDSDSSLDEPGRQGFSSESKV
Briefly: Receptor binding, [3H]CGP-12177, rat ventricle. Further details: species or system Wistar rat. How it is done: (§2) Drugs and chemicals. […] Eugenosedin-A synthesized in this laboratory was solvated in 50% absolute alcohol, 10% propylene glycol and further diluted with distilled water. All of the [^3H] ligand was purchased from New England Nuclear Corp. (Boston, Mass., U.S.A.).
(§3) Receptor binding studies. […] The homogenate was pressure filtered through muslin. Filtrate was centrifuged at 1000 g for 10 min. Supernatant was centrifuged at 10,000 g for 12 min at 4° C. The second supernatant was centrifuged at 30,000 g for 15 min at 4° C. The final pellet was re-suspended in assay buffer (75 mM Tris HCl, 25 mM MgCl2, pH 7.4). Protein content was determined by Bradford's method. Radioligand agents and membranes (200–300 μg) were incubated for 60 min at 25° C. with or without the addition of nonspecific binding agents, in a 75 mM Tris HCl buffer with 25 mM MgCl2, to make a final volume of 500 μl. In competitive-binding experiments, the competing agent was added directly to the incubation mixture. […] Membrane-bound radioligand trapped in the filters was counted in a Beckman LS6500 scintillation system (Fullerton, Calif., U.S.A) with an efficiency of 45%. In each experiment, nonspecifically bound radioligand agents were determined by incubating membrane protein. […]

The nature of assay [1]: Intra-cisternal injections: mean arterial BP and HR. The assay is classed as in vivo, rats. Here is the method: (§4) Intra-cisternal injections. […] Briefly, rats weighing 250–300 g were anaesthetized with pentobarbital sodium (50 mg kg^−1, i.p.) and mounted in a David-Kopf stereotaxic instrument (Yeh J L. et al., Brain. Res. Bull., 30:641–648, 1993). The calvarium was exposed and a 1 mm diameter trephine hole was drilled 1.8 mm lateral to the coronary and 1.5 mm posterior to the sagittal sutures. A cannula (0.7 mm O.D.) connected to a Hamilton syringe (RN-705, 5051) by PE-50 was advanced 4.7 mm into the brain using the electrode carrier.

A further assay is described as follows: Survival rate after LPS. The assay is classed as in vivo, ddk mice. The note with it: pretreatment 0.5, 1, 5 mg kg^−1 i.p., LPS 60 mg kg^−1.
The nature of assay [2]: Peroxyl radical scavenging, B-phycoerythrin/AAPH. The assay is classed as biochemical. Here is the method: The stoichiometric factors of the test compounds with hydrophilic peroxyl radicals were calculated by the equation as mentioned Ascorbic acid was used as a positive control.
In assay [3] the test system is Fe2+-ascorbic acid-induced lipid peroxidation. Briefly: Lipid peroxidation (TBARS) in rat brain homogenate. Conditions: n=5, read-out: IC50 of inhibition of Fe2+-ascorbic acid-induced lipid peroxidation. In kind it is biochemical. Here is the method:
Antioxidant and peroxyl radical scavenging activities. Rat brain homogenate was made in 0.9% saline containing 10 mg tissue/ml. The rates of membrane lipid peroxidation were measured by the formation of thiobarbituric acid (TBA)-reactive substance (TBARS). Rat brain homogenates (1 ml) were incubated at 37° C. for 5 min with 10 μl of test compound or vehicle. Lipid peroxidation was initiated by the addition of 0.1 ml of 0.25 mM FeCl2 and 1 mM ascorbic acid (Huang Y C. et al., Drug. Dev. Res., 47:77–89, 1999). After 30 min of incubation, the reaction was stopped by adding 0.1 ml of 0.2% BHT. TBA reagent was then added and the mixture was heated for 30 min in a boiling water bath. TBARS was extracted by n-butanol and measured at 532 nm. The amount of TBARS was quantified using the linear regression obtained from malondialdehyde (MDA) standards.

The target of another assay is T2, β2 receptors (Rattus norvegicus, UniProt P10608).
T2 construct: with [^3H]CGP-12177 on β2 receptors in rat lung; from tissue; host or cells: Wistar rat lung membranes
T2 sequence (P10608 whole entry): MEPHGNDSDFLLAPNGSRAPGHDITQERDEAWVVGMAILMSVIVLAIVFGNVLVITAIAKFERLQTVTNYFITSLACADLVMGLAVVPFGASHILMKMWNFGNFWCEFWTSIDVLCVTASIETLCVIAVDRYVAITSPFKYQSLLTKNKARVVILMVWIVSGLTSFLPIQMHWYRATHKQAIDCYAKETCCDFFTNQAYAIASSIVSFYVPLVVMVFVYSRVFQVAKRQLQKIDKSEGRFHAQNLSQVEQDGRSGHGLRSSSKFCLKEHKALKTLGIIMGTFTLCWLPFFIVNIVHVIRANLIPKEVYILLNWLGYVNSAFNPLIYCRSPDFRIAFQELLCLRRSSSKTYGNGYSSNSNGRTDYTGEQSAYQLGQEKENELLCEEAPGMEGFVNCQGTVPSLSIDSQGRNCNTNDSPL
Briefly: Receptor binding, [3H]CGP-12177, rat lung. Also on record: species or system Wistar rat. How it is done: as §2, §3

Assay [4] is described as follows: Micro-injection in NTS: BP and HR. The assay is classed as in vivo, rats. Conditions: NTS micro-injection, 0.03, 0.3 μmol, within 30 minutes after injection. The text has this: Micro-injection in NTS. Rats were anesthetized and placed in a David-Kopf stereotaxic instrument. The cerebellum was exposed after removing the skin and occipital bone. […] At the end of experiments, the animals were sacrificed. The brain was removed and sectioned for histological confirmation of the drug application site.

For the next assay, the target named is α1 receptors. Briefly: Receptor binding, [3H]prazosin, rat cortex. Also on record: species or system Wistar rat. Here is the method:
as §2
(§5) Receptor binding studies. […] The homogenate was pressure filtered through muslin. Filtrate was centrifuged at 1000 g for 10 min. Supernatant was centrifuged at 10,000 g for 12 min at 4° C. The second supernatant was centrifuged at 30,000 g for 15 min at 4° C. The final pellet was re-suspended in assay buffer (75 mM Tris HCl, 25 mM MgCl2, pH 7.4). Protein content was determined by Bradford's method. Radioligand agents and membranes (200–300 μg) were incubated for 60 min at 25° C. with or without the addition of nonspecific binding agents, in a 75 mM Tris HCl buffer with 25 mM MgCl2, to make a final volume of 500 μl. In competitive-binding experiments, the competing agent was added directly to the incubation mixture. Incubation was terminated by addition of 1 ml of ice-cold assay buffer followed by immediate filtration through Whatman GF/C glass fiber filters supported on a 12-port filter manifold (Millipore). The filters were immediately washed 3 times with 5 ml of ice-cold assay buffer and dried in an oven at 60° C. for 2 hours before adding 5 ml of Triton-toluene-based scintillation fluid. Membrane-bound radioligand trapped in the filters was counted in a Beckman LS6500 scintillation system (Fullerton, Calif., U.S.A) with an efficiency of 45%. In each experiment, nonspecifically bound radioligand agents were determined by incubating membrane protein. Specific binding for each sample was obtained by deducting this value from the total binding of radioligand agents.

The target of a further assay is α2 receptors. Briefly: Receptor binding, [3H]yohimbine, rat cortex. Further details: species or system Wistar rat. How it is done: as §2, §5
The nature of assay [5]: LPS-induced vascular hyporeactivity of isolated aorta to phenylephrine. In kind it is in vivo, rats.
From the text: as §1

A further assay relates to α2-adrenoceptor. Briefly: Intra-cisternal antagonism of clonidine-induced hypotension and bradycardia. In kind it is in vivo, rats. Here is the method: as §4
A further assay has as its system IL-6. Briefly: Plasma cytokine immunoreactivity after LPS: IL-6. In kind it is in vivo, Wistar rats. The note with it: 3 hours after LPS 10 mg kg^−1 i.v.; pretreatment 1 mg kg^−1 i.v. How it is done:
Plasma cytokine immunoreactivity and blood glucose. Blood was collected from venous cannula, injected into ice-cold heparinized Eppendorf tubes and centrifuged at 1500 rpm for 10 min at 4° C. Plasma supernatant was stored at −70° C. until analyzed. Solid phase enzyme immunoassay that specifically detects murine IL-1β, IL-6, IFN-γ and TNF-α was used with a detection limit of >10 pg/ml (Endogen, U.S.A). Pretreatment with eugenosedin-A and other agents was performed 15 minutes before intravenous injection of LPS. Blood was collected from venous cannula. Blood glucose was measured with a glucose test strip (Glucotide, Bayer, U.S.A) at 1, 3 and 5 hours.

In a further assay the target is 5-HT2A receptor (Rattus norvegicus, UniProt P14842). Briefly: 5-HT-induced contraction of isolated rat thoracic aorta. Further details: from tissue; host or cells: rat thoracic aorta rings. The assay is classed as cell-based.
Sequence of 5-HT2A receptor (P14842 whole entry): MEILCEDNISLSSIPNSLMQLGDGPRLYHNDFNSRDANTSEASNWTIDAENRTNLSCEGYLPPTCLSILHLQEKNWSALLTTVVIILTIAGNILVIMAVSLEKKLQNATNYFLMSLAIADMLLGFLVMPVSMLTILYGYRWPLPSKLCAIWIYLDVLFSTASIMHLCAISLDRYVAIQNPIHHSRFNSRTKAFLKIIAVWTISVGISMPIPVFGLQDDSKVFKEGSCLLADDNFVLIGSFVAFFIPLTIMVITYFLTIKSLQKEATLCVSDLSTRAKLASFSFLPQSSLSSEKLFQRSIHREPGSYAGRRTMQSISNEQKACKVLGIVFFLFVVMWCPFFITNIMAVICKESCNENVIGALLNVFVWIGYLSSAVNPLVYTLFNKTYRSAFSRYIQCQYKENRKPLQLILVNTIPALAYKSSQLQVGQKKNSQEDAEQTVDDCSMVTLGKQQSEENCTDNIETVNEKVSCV
From the text: as §1

Structures are written as SMILES.

The record followed here is patent publication US7105521B2, “Eugenosedin-A based pharmacoligical agents” (Syn-Tech Chem & Pharm Co., Ltd., priority 2003, dated 2006).

A word on the IC50: it is the concentration that inhibits the measured activity by half. The term Ki denotes a dissociation constant, usually derived from enzyme kinetics or from competition with a known ligand. Read a low Ki as tighter binding.

On to `CC=Cc1ccc(OCC(O)CN2CCN(c3ccccc3Cl)CC2)c(OC)c1` (centres unmarked) [eugenosedin-A], for which the “cumulative clonidine-induced contractile activities” value in the assay with α2-adrenergic receptors is listed as “competitively inhibited”. In addition, at β1 receptors, the “binding affinity for β1-adrenoceptors” value is given as “some binding affinity for β1-adrenoceptors”. Moreover, in [1] (0.3 μmol), the “increase of HR” value is reported as “up to 60 bpm” and the pressor response entry was “up to 15 mmHg”. Further, in assay [1] (eugenosedin-A and trazodone 0.3, 0.03 μmol, yohimbine 0.03 μmol), the “effect on mean arterial BP and HR” value was “increased mean arterial BP and HR”. For the same compound, in the assay “Survival rate after LPS” (at 12 hrs), the “survival rate after LPS” value is “significantly increased”. For the same compound, in the assay “Survival rate after LPS”, the “time of LPS-induced death” value was 36 h. Besides, in assay [2], the “scavenging of AAPH-derived peroxyl radicals (B-phycoerythrin fluorescence, lag time)” value is “concentration-dependent decrement of fluorescence and prolongation of the lag time”. The half-maximal inhibitory concentration (IC50) in assay [3] was found to be 2680 ± 50 nM. The same compound returned a Ki on β2 receptors of over 10000 nM. For the same compound, the “pressor response and HR” value in assay [4] is “mild, but significant, pressor responses and increased the HR”. For the same compound, at α1 receptors, affinity was put at a Ki of 142 nM; the “order of α1 receptor binding potency” value is “prazosin >ketanserin >eugenosedin-A >methylsergide, propranolol and 5-HT”. For the same compound, on α2 receptors, the affinity corresponds to a Ki of 1390 nM; the “order of α2 receptor binding potency” value is “prazosin >eugenosedin-A >ketanserin >methylsergide >propranolol and 5-HT”. Moreover, the “aortic contractility to phenylephrine in LPS-treated rats” value in assay [5] (1 mg kg^−1 i.v. before or after LPS, phenylephrine 10^−8~10^−4 M) is given as “increased aortic contractility more than the vehicle group”. Besides, the “protection from LPS-induced hyporeactivity of the aorta compared with yohimbine, trazodone, aminoguanidine and ascorbic acid” value in [5] (rat, in vivo) is on record as “more effective”. Also, the “bradycardic effect of clonidine” value in the assay on α2-adrenoceptor (0.3 μmol) was “reduced the bradycardic effect of clonidine”. Besides, in the assay with α2-adrenoceptor (given 15 min before clonidine injection), the “hypotensive effect of clonidine” value is “antagonized the hypotensive effect of clonidine”. Moreover, in the assay on α2-adrenoceptor (low dose, 0.03 μmol), the clonidine-induced bradycardia entry is listed as “did not inhibit clonidine-induced bradycardia”. Also, the “LPS-induced increase in IL-6” value with IL-6 is “significantly inhibited”. For the same compound, the Kb on 5-HT2A receptor was 2.09 nM. On 5-HT2A receptor (10^−8, 10^−7, 10^−6 M, isolated rat thoracic aorta), the 5-HT-induced contractile activities result is “concentration-dependently inhibited”.
